Structures are written as SMILES.

In one data set the target is T1, recombinant BCL-2 (Homo sapiens, UniProt P10415).
T1 construct: purchased BPS Bioscience 50272
Kind of data set: In vitro BCL-2 inhibitory activity, TR-FRET assay (BPS Bioscience). It is filed as binding. The following applies: for IC50: 5 concentrations 1 nM-10 µM; for inhibition at 10 µM: single dose of 10 µM. The protocol:
The in vitro enzyme inhibition determination for the synthesized compounds was carried out in BPS Bioscience Corporation, San Diego, CA, USA (www.bpsbioscience.com). […] The assay was performed by TR-FRET technology using a recombinant BCL-2 and a peptide- ligand substrate. The TR-FRET signal from the assay is correlated with the amount of Ligand binding to BCL-2. […] All of the binding reactions were conducted at room temperature. […] The reaction mixture incubated for 180 min prior to reading the TR-FRET signal. For the background, ligand was replaced with assay buffer. Fluorescence signals for both the donor and acceptor dyes were measured using a Tecan Infinite M1000 plate reader. TR-FRET was recorded as the ratio of the fluorescence of the acceptor and the donor dyes (acceptor/donor). Binding experiments were performed in duplicate at each concentration. The TR-FRET data were analyzed using the computer software, Graphpad Prism. In the absence of the compound in wells containing BCL-2 ligand, the TR-FRET signal (Ft) in each data set was defined as 100% activity. In wells without peptide ligand, the TR-FRET signal (Fb) in each data set was defined as 0% activity. The percent activity in the presence of each compound was calculated according to the following equation: % activity = [(F − Fb)/ (Ft − Fb)] × 100, where F = the TR-FRET signal in the presence of the compound. The percent inhibition was calculated according to the following equation: % inhibition = 100—% activity. IC50 determination for target compounds against BCL-2 was calculated. […] The IC50 value was determined by the concentration causing a half-maximal percent activity.
(In TR-FRET formats the signal depends on donor and acceptor labels being close together.)

Another data set concerns CCRF-CEM. Kind of data set: NCI in vitro anti-proliferative single dose screen. It is filed as cell-based, human. The note with it: single dose of 10 µM. The protocol:
(§1) The national cancer institute (NCI) in vitro anticancer screening is a two-stage process, beginning with the evaluation of the selected compounds 13c and 13d against NCI leukemia cell line at a single dose of 10 µM. The human leukemia cell line was obtained and maintained at the NCI. The output from the single dose screen is reported as a mean graph. The detailed assay protocol is discussed in the supporting material.
(§2) This assay was performed for compounds 13c and 13d by the Developmental Therapeutics Program (DTP) of the National Cancer Institute (NCI), division of cancer treatment and diagnosis, NIH, Bethesda, Maryland, USA (www.dtp.nci.nih.gov). The operation of this screen utilizes leukemia human tumor cell line[37]. The human tumor cell lines of the cancer screening panel were grown in RPMI 1640 medium containing 5% fetal bovine serum and 2 mM L-glutamine.
(§3) Results for the two compounds were reported as a mean graph of the percent growth of the treated cells when compared to the untreated control cells. The results are expressed as cell growth percent for the tested compounds on each of the used NCI cell line panels.
(§4) The human tumor cell lines of the cancer screening panel were grown in RPMI 1640 medium containing 5% fetal bovine serum and 2 mM L-glutamine. For a typical screening experiment, cells are inoculated into 96 well microtiter plates in 100 µL at plating densities ranging from 5,000 to 40,000 cells/well depending on the doubling time of individual cell lines. After cell inoculation, the microtiter plates are incubated at 37° C, 5 % CO2, 95 % air and 100 % relative humidity for 24 hrs prior to addition of experimental drugs. After 24 hrs, two plates of each cell line are fixed in situ with trichloroacetic acid (TCA), to represent a measurement of the cell population for each cell line at the time of drug addition (Tz). Experimental drugs are solubilized in dimethyl sulfoxide at 400-fold the desired final maximum test concentration and stored frozen prior to use. At the time of drug addition, an aliquot of frozen concentrate is thawed and diluted to twice the desired final maximum test concentration with complete medium containing 50 µg/mL gentamicin. Additional four, 10-fold or ½ log serial dilutions are made to provide a total of five drug concentrations plus control. Aliquots of 100 µl of these different drug dilutions are added to the appropriate microtiter wells already containing 100 µl of medium, resulting in the required final drug concentrations.
(§5) Following drug addition, the plates are incubated for an additional 48 hrs at 37°C, 5 % CO2, 95 % air, and 100 % relative humidity. For adherent cells, the assay is terminated by the addition of cold TCA. Cells are fixed in situ by the gentle addition of 50 µl of cold 50 % (w/v) TCA (final concentration, 10 % TCA) and incubated for 60 minutes at 4°C. The supernatant is discarded, and the plates are washed five times with tap water and air dried. Sulforhodamine B (SRB) solution (100 µl) at 0.4 % (w/v) in 1 % acetic acid is added to each well, and plates are incubated for 10 minutes at room temperature. After staining, unbound dye is removed by washing five times with 1 % acetic acid and the plates are air dried. Bound stain is subsequently solubilized with 10 mMtrizma base, and the absorbance is read on an automated plate reader at a wavelength of 515 nm. For suspension cells, the methodology is the same except that the assay is terminated by fixing settled cells at the bottom of the wells by gently adding 50 µl of 80 % TCA (final concentration, 16 % TCA).
(§6) Using the seven absorbance measurements [time zero, (Tz), control growth, (C), and test growth in the presence of drug at the five concentration levels (Ti)], the percentage growth is calculated at each of the drug concentrations levels. Percentage growth inhibition is calculated as: […]

The next data set deals with HL-60(TB). Kind of data set: NCI in vitro anti-proliferative single dose screen. It is filed as cell-based, human. The note with it: single dose of 10 µM. The protocol: as §1, §2, §3, §4, §5, §6
A further data set relates to K-562. Kind of data set: NCI in vitro anti-proliferative single dose screen. The class given is cell-based, human. The following applies: K-562, single dose of 10 µM. The protocol:
as §1, §2, §3, §4, §5, §6

For another data set, the system named is MOLT-4. As to the kind of experiment: NCI in vitro anti-proliferative single dose screen. The following applies: MOLT-4, single dose of 10 µM. It is filed as cell-based, human. The protocol: as §1, §2, §3, §4, §5, §6
The subject of another data set is RPMI-8226. Kind of data set: NCI in vitro anti-proliferative single dose screen. The following applies: RPMI-8226, single dose of 10 µM. The class given is cell-based, human. The protocol: as §1, §2, §3, §4, §5, §6
The next data set concerns SR. As to the kind of experiment: NCI in vitro anti-proliferative single dose screen. The class given is cell-based, human. The following applies: single dose of 10 µM; for Cell growth percent: SR. The protocol: as §1, §2, §3, §4, §5, §6
The next data set has as its system NCI leukemia cell line. As to the kind of experiment: NCI in vitro anti-proliferative screen, leukemia panel as a whole. It is filed as cell-based, human. The note with it: single dose of 10 µM. The protocol:
as §1
This assay was performed for compounds 13c and 13d by the Developmental Therapeutics Program (DTP) of the National Cancer Institute (NCI), division of cancer treatment and diagnosis, NIH, Bethesda, Maryland, USA (www.dtp.nci.nih.gov). The operation of this screen utilizes leukemia human tumor cell line[37]. […]
Results for the two compounds were reported as a mean graph of the percent growth of the treated cells when compared to the untreated control cells. The results are expressed as cell growth percent for the tested compounds on each of the used NCI cell line panels. […]
Following drug addition, the plates are incubated for an additional 48 hrs at 37°C, 5 % CO2, 95 % air, and 100 % relative humidity. […] Bound stain is subsequently solubilized with 10 mMtrizma base, and the absorbance is read on an automated plate reader at a wavelength of 515 nm. […]

The subject of another data set is BCL-2. The following applies: cited from earlier work.

T1 sequence (P10415 whole entry): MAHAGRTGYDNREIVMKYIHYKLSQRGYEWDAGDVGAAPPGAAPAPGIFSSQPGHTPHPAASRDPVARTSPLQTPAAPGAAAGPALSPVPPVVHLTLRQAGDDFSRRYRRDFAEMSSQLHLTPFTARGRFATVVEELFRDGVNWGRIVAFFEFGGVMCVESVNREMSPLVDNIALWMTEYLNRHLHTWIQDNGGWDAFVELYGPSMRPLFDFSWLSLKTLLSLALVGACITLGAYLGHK

As for `Cc1ccc(COc2ccc(NC(=O)c3ccc4nc(NC(=O)c5ccc(NCCc6ccccc6)c([N+](=O)[O-])c5)sc4c3)cc2)cc1` [13c, N-(4-((4-Methylbenzyl)oxy)phenyl)-2-(3-nitro-4-(phenethylamino)benzamido)benzo-[d]thiazole-6-carboxamide], the melting point – broadly, the temperature, or range, at which the solid turns liquid – lay in the range of 138 to 140 °C. Further, on recombinant BCL-2, the IC50 – broadly, the concentration at which inhibition is half-maximal – came to 471 nM and the inhibition – broadly, how much of the control response was suppressed – at 10 µM came to 84%. This molecule yielded a Cell growth percent with CCRF-CEM of 93.91%. In addition, the Cell growth percent in the data set with HL-60(TB) was found to be 75.74%. This molecule displayed a Cell growth percent with K-562 of 87.23%. This molecule also had a Cell growth percent in the data set with MOLT-4 of 94.74%. The same molecule showed a Cell growth percent in the data set on RPMI-8226 of 87.5%. For the same molecule, the Cell growth percent with SR is recorded as 82.5%. In addition, the “inhibition against the used leukemia cell line (in words)” value in the data set with NCI leukemia cell line is recorded as “poor inhibition”.
The molecule `O=C(Nc1ccc(OCc2cccc(Cl)c2)cc1)c1ccc2nc(NS(=O)(=O)c3ccc4ccccc4c3)sc2c1` [8b, N-(4-((3-Chlorobenzyl)oxy)phenyl)-2-(naphthalene-2-sulfonamido)benzo[d]thiazole-6-carboxamide] displayed a melting point of 198 to 200 °C. The inhibition at 10 µM on recombinant BCL-2 came out at 16%.
In turn, `O=C(Nc1ccc(OCc2ccc(C(F)(F)F)cc2)cc1)c1ccc2nc(NC(=O)c3ccc(NCCc4ccccc4)c([N+](=O)[O-])c3)sc2c1` [13d, N-(4-((4-Trifluoromethylbenzyl)oxy)phenyl)-2-(3-nitro-4-(phenethylamino)benzamido)-benzo[d]thiazole-6-carboxamide] displayed a melting point of 218 to 220 °C. In addition, the IC50 on recombinant BCL-2 stood at 363 nM. For the same molecule, the Cell growth percent with CCRF-CEM amounted to 68.2%. In the data set with HL-60(TB), the Cell growth percent was found to be 96.87%. For the same molecule, the Cell growth percent in the data set on K-562 came to 67.92%. Besides, in the data set with MOLT-4, the Cell growth percent was 74.37%. The molecule also showed a Cell growth percent with RPMI-8226 of 69.86%. Moreover, the inhibition at 10 µM with SR (Homo sapiens, leukemic SR cell lines, read-out: growth inhibition) is 62.9%. The molecule further registered a Cell growth percent with SR of 37.13%.
For the molecule `O=C(Nc1ccc(Oc2ccc(Cl)c(F)c2)cc1)c1ccc2nc(NC(=O)c3ccc(NCCc4ccccc4)c([N+](=O)[O-])c3)sc2c1` [14a, N-(4-(4-Chloro-3-fluorophenoxy)phenyl)-2-(3-nitro-4-(phenethylamino)benzamido)-benzo[d]thiazole-6-carboxamide], the melting point was in the range of 196 to 198 °C. The inhibition at 10 µM at recombinant BCL-2 came out at 20%.
As for `O=C(Nc1ccc(OCc2ccc(Br)cc2)cc1)c1ccc2nc(NC(=O)c3ccc(NCCc4ccccc4)c([N+](=O)[O-])c3)sc2c1` [13b, N-(4-((4-Bromobenzyl)oxy)phenyl)-2-(3-nitro-4-(phenethylamino)benzamido)-benzo[d]thiazole-6-carboxamide], the melting point is 260 to 262 °C. For the same molecule, on recombinant BCL-2, the IC50 amounted to 1090 nM and the inhibition at 10 µM is above 60%.
Take `Cc1cc(Cl)ccc1NC(=O)Nc1ccc2nc(NS(=O)(=O)c3ccc4ccccc4c3)sc2c1` [17i, N-(6-(3-(4-Chloro-2-methylphenyl)ureido)benzo[d]thiazol-2-yl)naphthalene-2-sulfonamide]: the melting point lay within 280 to 282 °C. Moreover, the inhibition at 10 µM on recombinant BCL-2 was 14%.
The matching figures for `O=C(Nc1nc2ccc(C(=O)N3CCN(C(c4ccccc4)c4ccccc4)CC3)cc2s1)c1ccc(NCCc2ccccc2)c([N+](=O)[O-])c1` [12c, N-(6-(4-Benzhydrylpiperazine-1-carbonyl)benzo[d]thiazol-2-yl)-3-nitro-(phenethylamino)-benzamide]: 170 to 172 °C and 18%.
The matching figures for `O=C(Nc1ccc(OCc2cccc(Cl)c2)cc1)c1ccc2nc(NC(=O)c3ccc(NCCc4ccccc4)c([N+](=O)[O-])c3)sc2c1` [13a, N-(4-((3-Chlorobenzyl)oxy)phenyl)-2-(3-nitro-4-(phenethylamino)benzamido) benzo[d]thiazole-6-carboxamide]: 260 to 262 °C and 35%.
On to `CCCCc1c(-c2ccc(C(=O)NS(=O)(=O)c3ccc4ccccc4c3)cc2C(=O)N2CCc3ccccc3C2)c(CO)nn1-c1ccc(Oc2cccc(Cl)c2)cc1` [Compound 1], for which the melting point was 42 to 44 °C. For the same molecule, in the data set with BCL-2, the IC50 is 6 nM.
With `O=C(Nc1ccc(Oc2ccc(Br)cc2)cc1)c1ccc2nc(NC(=O)c3ccc(NCCc4ccccc4)c([N+](=O)[O-])c3)sc2c1` [14b], the melting point was in the range of 212 to 214 °C. In addition, on recombinant BCL-2, the inhibition at 10 µM came out at 47%.
As to `O=C(Nc1ccc(Cl)c(C(F)(F)F)c1)Nc1ccc2nc(NS(=O)(=O)c3ccc4ccccc4c3)sc2c1` [17g, N-(6-(3-(4-Chloro-3-(trifluoromethyl)phenyl)ureido)benzo[d]thiazol-2-yl)naphthalene-2-sulfonamide], the melting point was at least 300 °C. Also, the inhibition at 10 µM on recombinant BCL-2 came to 18%.
As to `O=C(Nc1ccc(Oc2ccc(Br)cc2)cc1)c1ccc2nc(NS(=O)(=O)c3ccc4ccccc4c3)sc2c1` [9b, N-(4-(4-Bromophenoxy)phenyl)-2-(naphthalene-2-sulfonamido)benzo[d]thiazole-6-carboxamide], the melting point lay in the range of 280 to 282 °C. Moreover, at recombinant BCL-2, the inhibition at 10 µM amounted to 9%.
`Cc1ccc(COc2ccc(NC(=O)c3ccc4nc(NS(=O)(=O)c5ccc6ccccc6c5)sc4c3)cc2)cc1` [8e, N-(4-((4-Methylbenzyl)oxy)phenyl)-2-(naphthalene-2-sulfonamido)benzo[d]thiazole-6-carboxamide] returned a melting point of at least 300 °C. In addition, the inhibition at 10 µM on recombinant BCL-2 worked out at 13%.

The values above are taken from paper PMC10511702, “Design, molecular modelling and synthesis of novel benzothiazole derivatives as BCL-2 inhibitors” (Scientific Reports, 2023).
